In BigSolDB 2.1:

Settings: in water

O=[N+]([O-])c1ccc(/C=C/c2ccc([N+](=O)[O-])cc2S(=O)(=O)[O-])c(S(=O)(=O)[O-])c1.[Na+].[Na+]
Settings	solubility (mole fraction)
284.85 K	0.0013
290.35 K	0.0017
293.05 K	0.00197
296.45 K	0.00228
301.45 K	0.00302
304.55 K	0.00353
307.75 K	0.00394
309.85 K	0.00434
312.05 K	0.00498
316.25 K	0.00595
319.25 K	0.00674
321.95 K	0.00756
